Patent US9657043B2, “Amine compound and use thereof for medical purposes” (MITSUBISHI TANABE PHARMA CORPORATION, priority 2012, dated 2017)

Test system: peripheral blood lymphocyte count
Assay: Evaluation of peripheral blood lymphocyte count-decreasing effect in mice
Format: in vivo, male BALB/c mice
Settings: Mus musculus, ip, intraperitoneal administration, 24 hr after administration, in 20% cyclodextrin, read-out: ED50 (dose necessary for 50% reduction of the lymphocyte count of vehicle group as 100%)
Method: The compound of the present invention was dissolved or suspended in 20% cyclodextrin (manufactured by NIHON SHOKUHIN KAKO CO., LTD), and intraperitoneally administered to a 7- to 10-week-old male BALB/c mice (CHARLES RIVER LABORATORIES, JAPAN INC.) at a dose of 0.001-10 mg/kg body weight. After 24 hr from the administration of the compound of the present invention, peripheral blood (about 0.3 ml) was drawn from the postcava of the mouse with a heparin sodium (manufactured by NovoNordisk)-treated tuberculin syringe (manufactured by TERUMO CORPORATION) under ether anesthesia. The blood (0.1 ml) was hemolysed with an automatic hemolysis processing apparatus (TQ-Prep, manufactured by BECKMAN COULTER, Inc.), and the number of lymphocytes was counted with a Flow Cytometer (CYTOMICS FC 500, manufactured by BECKMAN COULTER, Inc.) by a gating method using scattering at the front and the side of the laser beam as indices and using Flow-Count™ Fluorospheres (manufactured by BECKMAN COULTER, Inc.), whose standard particle count is known, as internal standard. A dose necessary for 50% reduction of the lymphocyte count of vehicle group as 100% was calculated and used as ED50 value (mg/kg body weight).

Row | SMILES | ED50 [mg/kg]
1 | NC(CO)(CO)CCc1ccc2oc3cc(Oc4ccc(F)c(Cl)c4)ccc3c(=O)c2c1 [Example 116, 2-[3-amino-4-hydroxy-3-(hydroxymethyl)butyl]-6-(3-chloro-4-fluorophenoxy)-9H-xanthen-9-one] | 0.09
2 | COc1ccc(Oc2ccc3c(=O)c4cc(CCC(N)(CO)CO)ccc4oc3c2)cc1 [Example 108, 2-[3-amino-4-hydroxy-3-(hydroxymethyl)butyl]-6-(4-methoxyphenoxy)-9H-xanthen-9-one] | 0.05
3 | COc1ccc(Oc2ccc3c(=O)c4ccc(CCC(N)(CO)CO)cc4oc3c2)cc1 [Example 143, 3-[3-amino-4-hydroxy-3-(hydroxymethyl)butyl]-6-(4-methoxyphenoxy)-9H-xanthen-9-one] | 0.14
4 | CCCC/C=C/c1ccc2oc3cc(CCC(N)(CO)CO)ccc3c(=O)c2c1 [Example 180, 6-[3-amino-4-hydroxy-3-(hydroxymethyl)butyl]-2-[(1E)-hex-1-en-1-yl]-9H-xanthen-9-one] | 0.03
5 | Cl.NC(CO)(CO)CCc1ccc2oc3cc(-c4cccc(OC(F)(F)F)c4)ccc3c(=O)c2c1 [Example 164, 2-[3-amino-4-hydroxy-3-(hydroxymethyl)butyl]-6-[3-(trifluoromethoxy)phenyl]-9H-xanthen-9-one] | 0.04
6 | CCCCCOc1ccc2oc3ccc(CCC(N)(CO)CO)cc3c(=O)c2c1 [Example 22, 2-[3-amino-4-hydroxy-3-(hydroxymethyl)butyl]-7-pentyloxy-9H-xanthen-9-one] | 0.07
7 | NC(CO)(CO)CCc1ccc2c(=O)c3cc(Oc4ccc(F)c(Cl)c4)ccc3oc2c1 [Example 138, 6-[3-amino-4-hydroxy-3-(hydroxymethyl)butyl]-2-(3-chloro-4-fluorophenoxy)-9H-xanthen-9-one] | 0.06
8 | NC(CO)(CO)CCc1ccc2sc3ccc(Oc4cccc(Cl)c4)cc3c(=O)c2c1 [Example 76, 2-[3-amino-4-hydroxy-3-(hydroxymethyl)butyl]-7-(3-chlorophenoxy)-9H-thioxanthen-9-one] | 0.04
9 | CCCCCCOc1ccc2c(=O)c3ccc(CCC(N)(CO)CO)cc3sc2c1 [Example 20, 3-[3-amino-4-hydroxy-3-(hydroxymethyl)butyl]-6-hexyloxy-9H-thioxanthen-9-one] | 0.05
10 | NC(CO)(CO)CCc1ccc2oc3cc(-c4cccc(C(F)(F)F)c4)ccc3c(=O)c2c1 [Example 172, 2-[3-amino-4-hydroxy-3-(hydroxymethyl)butyl]-6-[3-(trifluoromethyl)phenyl]-9H-xanthen-9-one] | 0.09
11 | NC(CO)(CO)CCc1ccc2sc3cc(Oc4cccc(C(F)(F)F)c4)ccc3c(=O)c2c1 [Example 54, 2-[3-amino-4-hydroxy-3-(hydroxymethyl)butyl]-6-[3-(trifluoromethyl)phenoxy]-9H-thioxanthen-9-one] | 0.02
12 | NC(CO)(CO)CCc1ccc2oc3cc(Oc4ccc(F)cc4)ccc3c(=O)c2c1 [Example 105, 2-[3-amino-4-hydroxy-3-(hydroxymethyl)butyl]-6-(4-fluorophenoxy)-9H-xanthen-9-one] | 0.22
13 | NC(CO)(CO)CCc1ccc2sc3cc(Oc4ccc(Cl)cc4)ccc3c(=O)c2c1 [Example 55, 2-[3-amino-4-hydroxy-3-(hydroxymethyl)butyl]-6-(4-chlorophenoxy)-9H-thioxanthen-9-one] | 0.03
14 | CCCCCOc1ccc2c(=O)c3ccc(CCC(N)(CO)CO)cc3oc2c1 [Example 41, 3-[3-amino-4-hydroxy-3-(hydroxymethyl)butyl]-6-pentyloxy-9H-xanthen-9-one] | 0.37
15 | Cl.NC(CO)(CO)CCc1ccc2c(=O)c3cc(Oc4cccc(C(F)(F)F)c4)ccc3oc2c1 [Example 83, 6-[3-amino-4-hydroxy-3-(hydroxymethyl)butyl]-2-[3-(trifluoromethyl)phenoxy]-9H-xanthen-9-one] | 0.05
16 | NC(CO)(CO)CCc1ccc2sc3ccc(Oc4cccc(C(F)(F)F)c4)cc3c(=O)c2c1 [Example 44, 2-[3-amino-4-hydroxy-3-(hydroxymethyl)butyl]-7-[3-(trifluoromethyl)phenoxy]-9H-thioxanthen-9-one] | 0.01
17 | CCCCCCOc1ccc2oc3ccc(CCC(N)(CO)CO)cc3c(=O)c2c1 [Example 23, 2-[3-amino-4-hydroxy-3-(hydroxymethyl)butyl]-7-hexyloxy-9H-xanthen-9-one] | 0.03
